Measured values taken from patent US9149424B2, “Compositions and methods for reducing hepatotoxicity associated with drug administration” (YALE UNIVERSITY, priority 2007, dated 2015).
Entries after “also recorded” stand apart in the source; their conditions may differ.

Columns and labels:
wild-type mice [1] = assay: Acetaminophen (APAP) induced hepatotoxicity, survival over 72 hours; format: in vivo, mouse
Procedure: C57BL/6 mice were purchased from commercial sources. […] These mice have been described previously (39, 40). IL-1β was neutralized in by using the anti-IL-1β antibody from clone B122 (a gift of R. Schreiber, Washington University) at a dose of 0.2 mg/mouse iv twice a day for a total of 48 hours after giving APAP. Control mice received Armenian hamster isotype control antibody. For survival experiments animals were euthanized when they became moribund using criteria of lack of response to stimuli or lack of righting reflex. Animal protocols were approved by the Yale University animal care and use committee. [include references for IPAF−/− (M. Lara-Tejero et al. JEM 2006) and IL-18−/−. Need to add TLR9−/− and TLR3−/−]
(§1) APAP (Sigma, Mo.) solution was made fresh for each experiment in PBS at 20 mg/ml and heated in a water bath to 55° C. to dissolve. APAP was dosed at 500 mg/kg and injected I.P after 15 hrs of starvation. Animals were euthanized by ketamine/xylazine injection at 12 hours for collection of serum, isolation of liver lymphocytes or collection of liver tissue for histology, or they were observed every four hours for 72 hours until they reached criteria for euthanasia (lack of response to stimuli or lack of righting reflex).
(§2) Aspirin (Sigma, Mo.) was made fresh for each experiment. For dosing prior to APAP it was dissolved in single deionized water at 60 mg/l and heated to 42° C. with rapid stirring to dissolve, then rapidly placed in an ice water bath to cool. Aspirin in water was given to the mice 60-72 hours prior to APAP injection. Assuming water consumption of 3-5 ml per day this dose would be equivalent to a 300-500 mg dose in an 80 kg adult human. For co-administration of APAP and aspirin, aspirin was gavaged at a dose of 6 mg/kg in a volume of 100 ul of water immediately after ip injection of APAP. Clopidogrel (Gilead Pharmaceuticals, CA.) was dissolved in PBS at 6 mg/ml and administered by gavage of 100 ul, 30 mg/kg, every 24 hours beginning 48 hours prior and ending 24 hours after APAP injection. Cox-1 inhibitor (SC-560). SC-560 (Cayman chemical, MI) was dissolved at 50 mg/ml in DMSO and further dissolved in PBS in order to gavage a dose of 5 mg/kg in 100 ul.

wild-type mice [2] = assay: APAP induced hepatotoxicity, serum ALT at 12 hours; format: in vivo, mouse; conditions: aspirin pre-treatment in drinking water; 12 hrs after APAP; P<0.04
Procedure: as §1
Aspirin (Sigma, Mo.) was made fresh for each experiment. For dosing prior to APAP it was dissolved in single deionized water at 60 mg/l and heated to 42° C. with rapid stirring to dissolve, then rapidly placed in an ice water bath to cool. Aspirin in water was given to the mice 60-72 hours prior to APAP injection. Assuming water consumption of 3-5 ml per day this dose would be equivalent to a 300-500 mg dose in an 80 kg adult human. For co-administration of APAP and aspirin, aspirin was gavaged at a dose of 6 mg/kg in a volume of 100 ul of water immediately after ip injection of APAP. […]
(§3) TLR9 antagonist (ODN2088, 50 microg×2) or PBS, were injected ip into wild-type mice immediately after and at 6 hours after APAP injection and total mouse liver was obtained 12 hours after APAP injection for quantitative Q-PCR for IL-1β. […]

pro-IL-1β transcript = assay: Quantitative real-time PCR of total liver 12 hours after APAP, pro-IL-1β; format: in vivo, mouse; conditions: aspirin pre-treatment in drinking water
Procedure: as §1, §3
Q-PCR was performed for IL-1β and IL-18 using commercial primer-probe sets (Applied Biosystems, Framingham, Mass.) and the Applied Biosystem 7500 real-time PCR system. Expression of glyceraldehyde 3-phosphate dehydrogenase was used to standardize the samples, and the results were expressed as a ratio compared with untreated HSCs. Quantitative Real-time PCR for mRNA expression of IL-18, IL-1β, TNF-α and IFN-γ. […] Quantitative real-time PCR (Q-PCR) was performed for IL-18 and IL-1β using commercial primer-probe sets (Applied Biosystems, Calif.) and the Applied Biosystem 7500 real time PCR system. […]

pro-IL-18 transcript = assay: Quantitative real-time PCR of total liver 12 hours after APAP, pro-IL-18; format: in vivo, mouse; conditions: aspirin pre-treatment in drinking water
Procedure: as §1
(§4) Q-PCR was performed for IL-1β and IL-18 using commercial primer-probe sets (Applied Biosystems, Framingham, Mass.) and the Applied Biosystem 7500 real-time PCR system. Expression of glyceraldehyde 3-phosphate dehydrogenase was used to standardize the samples, and the results were expressed as a ratio compared with untreated HSCs. Quantitative Real-time PCR for mRNA expression of IL-18, IL-1β, TNF-α and IFN-γ. Total mouse liver was obtained 12 hours after APAP and cDNA was prepared. Quantitative real-time PCR (Q-PCR) was performed for IL-18 and IL-1β using commercial primer-probe sets (Applied Biosystems, Calif.) and the Applied Biosystem 7500 real time PCR system. Expression of GAPDH was used to standardize the samples, and the results were expressed as a ratio compared to control.

TNF-α = assay: Quantitative real-time PCR of total liver 12 hours after APAP, TNF-α; format: in vivo, mouse; conditions: aspirin pre-treatment
Procedure: as §1, §4

IFN-γ = assay: Quantitative real-time PCR of total liver 12 hours after APAP, IFN-γ; format: in vivo, mouse; conditions: aspirin pre-treatment
Procedure: as §1, §4

wild-type mice [3] = assay: APAP induced hepatotoxicity, liver histology (H&E) at 12 hours; format: in vivo, mouse; conditions: aspirin 60 mg/l in drinking water three days before APAP; 12 hours after APAP
Procedure: as §1
as §2, with “SC-560 (Cayman chemical, MI) was dissolved at 50 mg/ml in DMSO and further dissolved in PBS in order to gavage a dose of 5 mg/kg in 100 ul.” left out

IL-1β = assay: ELISA for serum IL-1β after APAP; format: in vivo, mouse; conditions: APAP with vs without ASA in drinking water; p<0.02
Procedure: ELISA for serum IL1-β was carried out by standard protocols.

NALP3 inflammasome = assay: Uric acid (MSU crystal) peritonitis, Gr-1 positive neutrophils in peritoneal lavage; format: in vivo, mouse; conditions: low dose aspirin (60 mg/l) in drinking water for three days before MSU 3 mg ip; lavage at 3 hours
Procedure: Peritonitis was induced with uric acid crystals as previously described by injecting 3 mg of MSU intraperitoneally per mouse (27). Three hours after injection peritoneal lavage was performed on mice euthanized by isoflurane inhalation. Neutrophil infiltration was evaluated by flow cytometry. The percent of Gr-1 (BD Pharmingen, CA) positive cells was multiplied by the total cell counts.

[4] = system: pro-IL-1β transcript in THP1 cells; assay: THP1 cells stimulated with LPS, real-time PCR pro-IL-1β; format: cell-based, human; conditions: THP1 cells incubated overnight with aspirin (1.5 mM, 0.15 mM), then LPS 10 μg/ml 8 hours
Procedure: The human monocytic cell line THP1 was maintained in RPMI with 10% FBS. Stimulation with LPS (Sigma, Mo.) was performed by plating cells at 5×10^5 per 24 well, incubating overnight with aspirin or control media prior to adding LPS at 10 μg/ml for 8 hours.

mice and rats = conditions: aspirin 200-600 mg/kg (dose range toxic to humans); cited from earlier work

In the case of `COc1ccc(-n2nc(C(F)(F)F)cc2-c2ccc(Cl)cc2)cc1` [SC-560], the “protection against APAP toxicity (survival)” value (wild-type mice [1]; SC-560 5 mg/kg gavage twice daily from 60 hours before to 48 hours after APAP, n=10 each, P<0.97) is reported as “did not protect”.
With `COC(=O)[C@H](c1ccccc1Cl)N1CCc2sccc2C1` [clopidogrel] the “protection against APAP toxicity (survival)” value (wild-type mice [1]; clopidogrel 30 mg/kg gavage every 24 hrs from 48 hours before to 24 hours after APAP, n=15 each, P<0.31) was “did not protect”.
In the case of `CC(=O)Oc1ccccc1C(=O)O` [aspirin, acetylsalicylic acid], the “survival after APAP” value (wild-type mice [1]; aspirin 60 mg/l in drinking water 3 days before APAP 500 mg/kg ip, control n=13, aspirin n=17, P<0.02) is reported as “markedly improved survival”, the survival (wild-type mice [1]; aspirin given concordantly with APAP, 6 mg/kg gavage, control 22%+/−19%, P<0.04) is reported as 43%+/−11% and the “serum ALT” value (wild-type mice [2]) is reported as “significantly lower”. For the same compound, the “increase in pro-IL-1β message by APAP, whole liver” value (pro-IL-1β transcript) was “reduced to normal levels”, the “increase in pro-IL-18 message by APAP, whole liver” value (pro-IL-18 transcript) was “reduced to normal levels” and the “expression of TNF-α, whole liver” value (TNF-α) was “reduced”. The “expression of IFN-γ, whole liver” value (IFN-γ) was “reduced”, the “liver histology (liver injury and hemorrhage)” value (wild-type mice [3]) was “significant reduction in APAP induced liver injury and hemorrhage; also recorded: markedly improved” and the “serum IL-1β levels” value (IL-1β) was “significant reduction”. The “neutrophil exudates in MSU peritonitis” value (NALP3 inflammasome) was “eightfold reduction”, the “LPS induced up-regulation of pro-IL-1β transcript” value [4] was “reduced” and the “liver injury from APAP” value (mice and rats) was “reduce liver injury”. The “survival from APAP” value (mice and rats) was “not improve survival”.
